Experimental findings from article PMC2884014 (Biochemistry, 2010) are described below.

Like-named read-outs stand apart in the source and are kept apart here.

Holding throughout (assay type): biochemical
Assay [1] addresses T1, MurA (UDP-N-acetylglucosamine 1-carboxyvinyltransferase) (Enterobacter cloacae, UniProt P33038). In words: crystal structure at […] Å.
Assay [2] has as its target T1, MurA (UDP-N-acetylglucosamine 1-carboxyvinyltransferase). Kind of assay: crystal structure at […] Å. The source holds these as a separate data set.
Assay [3] concerns the target MurA (UDP-N-acetylglucosamine 1-carboxyvinyltransferase) (Escherichia coli, UniProt P0A749). In words: malachite green assay of residual MurA activity.

T1 sequence (P33038 whole entry): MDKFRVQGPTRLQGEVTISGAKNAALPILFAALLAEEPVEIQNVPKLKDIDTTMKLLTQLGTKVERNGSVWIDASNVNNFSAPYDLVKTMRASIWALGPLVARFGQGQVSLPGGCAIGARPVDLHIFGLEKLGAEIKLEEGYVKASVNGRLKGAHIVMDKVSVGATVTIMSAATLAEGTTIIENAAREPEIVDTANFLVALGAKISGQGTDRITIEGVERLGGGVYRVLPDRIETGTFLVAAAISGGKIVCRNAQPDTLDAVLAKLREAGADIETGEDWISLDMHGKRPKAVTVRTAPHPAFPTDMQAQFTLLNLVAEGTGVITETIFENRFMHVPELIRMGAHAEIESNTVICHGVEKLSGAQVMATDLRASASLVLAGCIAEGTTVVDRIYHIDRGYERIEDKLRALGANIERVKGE
Sequence of MurA (UDP-N-acetylglucosamine 1-carboxyvinyltransferase) (Escherichia coli, UniProt P0A749) (P0A749 whole entry): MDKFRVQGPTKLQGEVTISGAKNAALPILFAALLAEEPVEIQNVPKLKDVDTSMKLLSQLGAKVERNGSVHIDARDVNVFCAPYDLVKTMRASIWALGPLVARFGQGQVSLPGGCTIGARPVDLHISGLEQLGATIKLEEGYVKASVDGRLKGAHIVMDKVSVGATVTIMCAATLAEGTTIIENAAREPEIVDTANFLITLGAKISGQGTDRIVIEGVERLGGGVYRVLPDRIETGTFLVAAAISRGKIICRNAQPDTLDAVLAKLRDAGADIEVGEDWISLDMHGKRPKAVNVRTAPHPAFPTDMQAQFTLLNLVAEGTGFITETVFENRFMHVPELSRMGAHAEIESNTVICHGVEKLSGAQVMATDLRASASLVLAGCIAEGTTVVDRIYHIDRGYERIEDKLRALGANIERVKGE

The compound `C[C@@H]1O[C@@H]1P(=O)(O)O` [fosfomycin, (1R,2S)-1,2-epoxypropyl phosphonic acid] displayed an IC50 in assay [1] of 0.25 ± 0.01 µM. Regarding `CC1=C(O)C(=O)[C@@H]2O[C@@H]2C1=O` [terreic acid], in assay [2], the IC50 worked out at 14 ± 0.6 µM. In addition, in assay [3], the “malachite green assay of residual MurA activity” value is “terreic acid is a covalent inhibitor of the bacterial cell wall biosynthetic enzyme MurA from E. cloacae and E. coli in-vitro”.
